Consider 3 molecules from patent US4035486A, “Medicament” (Centre d'Etudes Experimentales et Clinques de Physio …, priority 1974, dated 1977).

Assay [1] has as its system sections of the cerebral cortex of a rat stimulated by KCl. The experiment in a line: Action in vitro on consumption of oxygen, accumulation of lactic acid and consumption of glucose in rat cerebral cortex sections stimulated by KCl (Warburg technique, enzymatic determination). The format is cell-based. Conditions: for Accumulation of lactic acid / Consumption of glucose / Consumption of oxygen: rat cerebral cortex sections stimulated by KCl, 1 hour at 37°, ACh 2.7.10^-10 M, insulin 66.10^-4 U/I. An excerpt:
1. The investigation, on sections of a rat's brain which have been stimulated by KCl, of the variations in the consumption of oxygen, the production of lactic acid and the consumption of glucose, by WARBURG's conventional technique, after which these sections are subjected to the action of guanosine, ACh or insulin or guanosine in association with ACh or insulin. I. Action in vitro of guanosine, alone or in association with acetylcholine or insulin, on the consumption of oxygen, the accumulation of lactic acid and the consumption of glucose in sections of the cerebral cortex of a rat which have been stimulated by KCl. The animals which are used are male Wistar Vag rats with an average weight of 225/250 grammes, and they have been subjected to standard laboratory regime. The sections of tissue, which weigh between 15 and 20 mg, were taken from the cerebral cortex of the rat and allowed to incubate for 1 hour at 37° after being placed in a flask containing the Krebs-Ringer phosphate buffer having a KCl concentration of 10 percent. The substrate comprises 15 μ moles of glucose. The guanosine, […], is added to the flask simultaneously with the glucose and the buffer, whereas the acetylcholine 2.7.10^^-10 M and the insulin (Endopancrine) 66.10^-^4 μ/liter are placed in the lateral paunch and put into contact with the section of tissue at a time 0. The total volume of the mixture is 3 mls. The consumption of oxygen is measured according to Warburg's conventional method after a 1-hour period of incubation at 37°. It is expressed in μ moles of oxygen per hour and per gramme of tissue. The lactic acid and glucose are determined in the deproteinised incubation medium by an enzymatic method. The results are expressed in μ moles/h/g of tissue.

The test system of assay [2] is glycogen of the mouse brain. Nature of the assay: Cerebral glycogen in a mouse after injection of guanosine, insulin or both. The format is in vivo. Conditions: for glycogen of the mouse brain: 30 minutes before killing; for level of cerebral glycogen compared with the controls (in words): mouse, guanosine 100 mg/kg or 200 mg/kg, insulin 0.5 I.U./20 g, or insulin with guanosine 200 mg/kg. The protocol:
2. The investigation of the content of glycogen in the brain of a mouse under the action of quanosine or insulin or these two agents in association. The animals which are used are male mice with an average weight of 20-25 g. Five groups of animals were studied which had received respectively: 1st group: a isotonic salt solution by intraperitoneal injection. 2nd group: a dose of 100 mg/kg of guanosine by intraperitoneal injection. 3rd group: a dose of 200 mg/kg of guanosine by intraperitoneal injection. 4th group: a dose of 0.5 μI/20 g per mouse of insulin by subcutaneous injection. For these four groups the injection was made 30 minutes before the animals were killed. 5th group: an intraperitoneal injection of guanosine at a dose of 200 mg/kg 30 minutes before a sub-cutaneous injection of insulin at a dose of 0.5 μI/20 g per mouse. The animal is killed 30 minutes after the second injection by being totally immersed in liquid nitrogen. The brains are removed whilst they are still deep-frozen. The isolated glycogen is hydrolyzed by the enzyme amylo-α-1,4 -α-1,6 glucosidase which releases the glucose by hydrolysis of the α-(1 → 6) and α-(→ 4) bonds. The glucose is then converted, in a single stage, to 6-phosphogluconate by the enzymes : hexokinase and glucose-6-phosphate dehydrogenase. The formation of the nicotinamide adenine dinucleotide phosphate is then measured florometrically (NAHORSKI and ROGERS, Analyt. Biochem. 1972, 49, 492-497).

Assay [3] relates to glycemia. Nature of the assay: Action of guanosine upon glycemia in the rabbit after intravenous injection. Format: in vivo. Conditions: insulin 0.5 I.U. per kg alone or with guanosine 100 mg per kg, followed to 240 min. The protocol: 3. The study of the variations in glycemia in a rabbit after an injection of either insulin or insulin in association with guanosine.
The animals which are used are male rabbits with a weight of 2.200 kg to 2.500 kg.
Four groups of animals were studied which had received by intravenous injection, respectively, in a volume of 10 ml:
1st group: an isotonic solution of sodium chloride.
2nd group: guanosine at the rate of 100 mg per kg of rabbit.
3rd group: insulin at the rate of 0.5 I.U. per kg of rabbit.
4th group: guanosine at the rate of 100 mg per kg of rabbit and insulin at the rate of 0.5 I.U. per kg of rabbit.
A catheter is inserted into the femoral artery, its distal end being joined to the skin in the caudal region, such that the blood may be removed without harming the rabbit.
The drugs were injected via a vein in the ear. The guanosine was dissolved in an isotonic sodium chloride solution to which 1.5% NaOH was added until the guanosine has been dissolved. The pH of the final solution was 9.
After the inspection the rabbits were given 30 minutes rest.
Arterial blood was removed on six occasions at the times t = 0 min; t = 15 min; t = 30 min; t = 60 min; t = 120 min; t = 240 min.
The glycemia values were determined by the enzymatic method of BOEHRINGER.

As to `CC(=O)OCC[N+](C)(C)C` [ACh, acetylcholine, reference compound], in assay [1] (acetylcholine 2.7.10^-10 M, alone or with guanosine, rat cerebral cortex sections), the “increase in the consumption of oxygen” value is reported as 25%. Further, in assay [1] (guanosine 1.66.10^-4 M), the Accumulation of lactic acid worked out at 98.8 ± 3.7 µmol/h/g, the Consumption of glucose was 146 ± 13.9 µmol/h/g and the Consumption of oxygen is 134 ± 7.2 µmol/h/g.
On to `Nc1nc2c(ncn2[C@@H]2O[C@H](CO)[C@@H](O)[C@H]2O)c(=O)[nH]1` [Guanosine, guanosine], for which the “glycogen of the mouse brain” value in assay [2] (guanosine 100 mg/kg intraperitoneal) was 151 ± 7 μ g of glucose equivalents per. Also, the “glycogen of the mouse brain” value in assay [2] (guanosine 200 mg/kg intraperitoneal) is 159 ± 8 μ g of glucose equivalents per. Besides, the “level of cerebral glycogen compared with the controls (in words)” value in assay [2] is listed as “do not show any significant differences”. In assay [1] (guanosine 1.66.10^-4 M), this molecule yielded an Accumulation of lactic acid of 88.2 ± 5.4 µmol/h/g, a Consumption of glucose of 99.3 ± 9.1 µmol/h/g and a Consumption of oxygen of 93 ± 6 µmol/h/g. Also, the “effect upon the accumulation of lactic acid (in words)” value in assay [1] (rat cerebral cortex sections, guanosine 1.66.10^-4 M) is “has no effect”. In assay [1] (rat cerebral cortex sections, guanosine 1.66.10^-4 M, acetylcholine 2.7.10^-10 M), the “effect upon the consumption of glucose (in words)” value is given as “has no effect”. Also, the “effect upon the consumption of oxygen (in words)” value in assay [1] (rat cerebral cortex sections, guanosine 1.66.10^-4 M, acetylcholine 2.7.10^-10 M, insulin 66.10^-4 μ/liter) was “has no effect”.
On to insulin, for which the “glycogen of the mouse brain” value in assay [2] (insulin 0.5 I.U./20 g mouse subcutaneous) is given as 182 ± 10 μ g of glucose equivalents per. In assay [2], the “level of cerebral glycogen compared with the controls (in words)” value was “very much higher than that of the controls”. Further, the “return of the glycemia to its original level (in words)” value in assay [3] was “quickly returns to its original level”. Further, the “increase in the consumption of glucose” value in assay [1] (insulin 66.10^-4 μ/liter, alone or with guanosine, rat cerebral cortex sections) was 50%. In assay [1] (guanosine 1.66.10^-4 M), this molecule returned an Accumulation of lactic acid of 84.6 ± 5 µmol/h/g, a Consumption of glucose of 168 ± 17 µmol/h/g and a Consumption of oxygen of 91.6 ± 5.3 µmol/h/g.
